# From patent US7868204B2, “Inhibitors of histone deacetylase” (MethylGene Inc., priority 2001, dated 2011)
# Like-named read-outs stand apart in the source and are kept apart here.
# What was measured:
# [1] = biological target: T1, cloned recombinant human HDAC-1 (Homo sapiens, UniProt Q13547); experiment: Human HDAC-1 enzyme inhibition, Assay 1 ([3H]-acetylated histone substrate, scintillation counting); assay type: biochemical
# T1 construct: made in house; host or cells: Baculovirus insect cell expression system
# T1 sequence (Q13547 whole entry): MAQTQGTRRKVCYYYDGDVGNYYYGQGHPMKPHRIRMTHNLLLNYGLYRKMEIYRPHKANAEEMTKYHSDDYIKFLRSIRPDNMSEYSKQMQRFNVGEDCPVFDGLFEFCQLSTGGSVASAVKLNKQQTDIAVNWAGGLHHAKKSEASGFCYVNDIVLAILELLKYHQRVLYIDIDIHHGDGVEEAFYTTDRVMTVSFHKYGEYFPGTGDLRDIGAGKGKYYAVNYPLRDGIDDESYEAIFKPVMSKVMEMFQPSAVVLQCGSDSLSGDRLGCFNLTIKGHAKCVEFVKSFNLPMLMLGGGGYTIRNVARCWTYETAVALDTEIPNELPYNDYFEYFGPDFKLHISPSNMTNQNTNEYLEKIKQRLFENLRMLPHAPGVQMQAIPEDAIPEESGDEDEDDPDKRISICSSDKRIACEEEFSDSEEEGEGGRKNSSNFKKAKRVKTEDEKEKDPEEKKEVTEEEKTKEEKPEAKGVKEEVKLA
# Outline: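 Recombinant human HDAC-1 from baculovirus-infected insect cells, preincubated with compound 30 min at 4° C. before reaction. Released [3H]-acetic acid extracted with ethyl acetate and counted by scintillation. IC50 taken from dose-response curves as concentration giving half-maximal inhibition.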
# [2] = system: HCT116 cells; experiment: MTT assay; assay type: cell-based; settings: Homo sapiens
# Outline: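 Cells plated one day before dosing, then exposed to compound 72 h at 37 °C, 5% CO2. MTT at 0.5 mg/ml final for 4 h, solubilized in DMF/SDS buffer pH 4.7; OD converted to cell number from a standard growth curve.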
# [3] = system: acetylated histone H-4 in T24 human bladder cancer cells; experiment: Histone H4 acetylation in whole cells by immunoblots; assay type: cell-based; settings: 16 h
# Outline: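 T24 cells were treated with HDAC inhibitors for 16 h; […] total histone protein was resolved by SDS/PAGE and immunoblotted with polyclonal anti-acetylated H4 antibody. ECL detection, with signal quantified by densitometry.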
# [4] = system: HCT116 human colorectal carcinoma cells; experiment: Antitumor activity in HCT116 human colorectal tumor xenograft model in vivo; set-up: species or system BALB/c nude mice; settings: Mus musculus, ip, HCT 116 colorectal tumor model, read-out: % Inhibition of Tumor Growth; for inhibition in vivo at 40 mg/kg: 40 mg/kg i.p.; for inhibition in vivo at 20 mg/kg: 20 mg/kg i.p.
# Protocol: Eight to ten week old female BALB/c nude mice (Taconic Labs, Great Barrington, N.Y.) were injected subcutaneously in the flank area with 2×10^6 preconditioned HCT116 human colorectal carcinoma cells. Preconditioning of these cells was done by a minimum of three consecutive tumor transplantations in the same strain of nude mice. Subsequently, tumor fragments of approximately 30 mgs were excised and implanted subcutaneously in mice, in the left flank area, under Forene anesthesia (Abbott Labs, Geneve, Switzerland). When the tumors reached a mean volume of 100 mm^3, the mice were treated intravenously, subcutaneously, or intraperitoneally by daily injection, with a solution of the histone deacetylase inhibitor in an appropriate vehicle, such as PBS, DMSO/water, or Tween 80/water, at a starting dose of 10 mg/kg. The optimal dose of the HDAC inhibitor was established by dose response experiments according to standard protocols. Tumor volume was calculated every second day post infusion according to standard methods (e.g., Meyer et al., Int. J. Cancer 43: 851-856 (1989)). […] FIGS. 2-10 show the results of additional compounds tested.
# [5] = biological target: HDAC-1 (Homo sapiens, UniProt Q13547); experiment: Human HDAC-1 enzyme inhibition, Assay 2 (Boc-Lys(Ac)-AMC, Fluor-de-Lys fluorescence; compounds 604-617); assay type: biochemical; settings: read-out: HDAC1 IC50
# Sequence of HDAC-1 (Q13547 whole entry): as above
# Protocol: Assay 2. The following protocol was also used to assay the compounds of the invention. In the assay, the buffer used was 25 mM HEPES, pH 8.0, 137 mM NaCl, 2.7 mM […], 1 mM MgCl2 and the substrate was Boc-Lys(Ac)-AMC in a 50 mM stock solution in DMSO. The enzyme stock solution was 4.08 μg/mL in buffer. The compounds were pre-incubated (2 μl in DMSO diluted to 13 μl in buffer for transfer to assay plate) with enzyme (20 μl of 4.08 μg/ml) for 10 minutes at room temperature (35 μl pre-incubation volume). The mixture was pre-incubated for 5 minutes at room temperature. The reaction was started by bringing the temperature to 37° C. and adding […] substrate. Total reaction volume was 50 μl. […] A plate was incubated in the dark for 10 minutes at room temperature before reading (λEx=360 nm, λEm=470 nm, Cutoff filter at 435 nm). Assay 2 was used to measure HDAC activity of compounds 604-617 (Table 5). HDAC activity of the remaining compounds was measured by assay 1.
# [6] = Table 5E, read-out: Human HDAC-1 IC50
# [7] = HCT-116, 72 h, Table 5E, HCT116 cells, 72 hours
# [8] = T-24, Table 5E, read-out: H4 Ac (T24) EC50
# [9] = HCT-116, 72 h, Table 5c, HCT116 cells, 72 hours
# [10] = T-24, Table 5c, read-out: H4Ac (T24) EC50
# [11] = Table 5a, read-out: Human HDAC-1 IC50
# [12] = HCT-116, 72 h, Table 5a, HCT116 cells, 72 hours
# [13] = T-24, Table 5a, read-out: H4Ac (T24) EC50
# [14] = Table 5F, read-out: Human HDAC-1 IC50
# [15] = HCT-116, 72 h, Table 5F, HCT116 cells, 72 hours
# [16] = T-24, Table 5F, read-out: H4 Ac (T24) EC50
smiles,measurement,setting,value
COc1ccc(CNc2ccc3cc(C(=O)Nc4ccccc4N)ccc3n2)cc1 [Cpd 87],IC50,[1]; [6],2000 nM
same,IC50,[2]; [7],1000 nM
same,EC50,[3]; [8],5000 nM
same,inhibition in vivo at 40 mg/kg,[4],30%
"Nc1ccccc1NC(=O)/C=C/c1ccc(NCc2cccc(OC(F)(F)F)c2)nc1 [Cpd 98, N-(2-aminophenyl)-3-[6-(3-trifluoromethoxy-benzylamino)-pyridin-3-yl]-acrylamide]",IC50,"[1]; Table 5c, read-out: Human HDAC-1 IC50",400 nM
same,IC50,[2]; [9],2000 nM
same,EC50,[3]; [10],15000 nM
same,inhibition in vivo at 20 mg/kg,[4],52%
"COC(=O)c1ccc(O[C@H]2CCN(c3ccc(C(=O)Nc4ccccc4N)cc3)C2)cc1 [compound 611, (S)-methyl-4-(1-(4-(2-aminophenylcarbamoyl)phenyl)pyrrolidin-3-yloxy)benzoate]",IC50,[5],97.6 nM
same,IC50,"[2]; HCT-116, HCT116 cells",600 nM
"Nc1ccccc1NC(=O)c1ccc(N2CC[C@H](Oc3ccccc3)C2)cc1 [compound 610, (S)-N-(2-aminophenyl)-4-(3-phenoxypyrrolidin-1-yl)benzamide]",IC50,[5],266 nM
same,IC50,"[2]; HCT-116, HCT116 cells",750 nM
"Nc1nc(NCc2ccc(C(=O)Nc3ccccc3N)cc2)nc(N2CCOCC2)n1 [Cpd 9, 4-[(4-amino-6-morpholin-4-yl-[1,3,5]-triazin-2-ylamino)-methyl]-N-(2-amino-phenyl)-benzamide]",IC50,[1]; [11],2000 nM
same,IC50,[2]; [12],700 nM
same,EC50,[3]; [13],5000 nM
same,inhibition in vivo at 40 mg/kg,[4],51%
"Nc1ccccc1NC(=O)c1ccc(N2CC[C@H](Oc3ccc([N+](=O)[O-])cc3)C2)cc1 [compound 616, (S)-N-(2-aminophenyl)-4-(3-(4-nitrophenoxy)pyrrolidin-1-yl)benzamide]",IC50,[5],107 nM
same,IC50,"[2]; HCT-116, HCT116 cells",700 nM
COc1ccc(CCNc2ccc(C(=O)Nc3ccccc3N)cn2)cc1 [Cpd 168],IC50,[2]; [7],800 nM
same,EC50,[3]; [8],2000 nM
same,inhibition in vivo at 40 mg/kg,[4],26%
"COc1cc(NCc2ccc(/C=C/C(=O)Nc3ccccc3N)cc2)cc(OC)c1OC [Cpd 106, N-(2-aminophenyl)-3-{4-[(3,4,5-trimethoxy-phenylamino)-methyl]-phenyl}-acrylamide]",IC50,[2]; [9],2000 nM
same,EC50,[3]; [10],1000 nM
same,inhibition in vivo at 20 mg/kg,[4],80%
"Nc1nc(NCc2ccc(C(=O)Nc3ccccc3N)cc2)nc(N2CCCCC2)n1 [Cpd 15, N-(2-amino-phenyl)-4-[(4-amino-6-piperidin-1-yl [1,3,5]-triazin-2-ylamino)-methyl]-benzamide]",IC50,[1]; [11],500 nM
same,IC50,[2]; [12],200 nM
same,EC50,[3]; [13],3000 nM
same,inhibition in vivo at 40 mg/kg,[4],26%
"Nc1ccccc1NC(=O)c1ccc(N2CC[C@H](Oc3ccc(C(=O)O)cc3)C2)cc1 [compound 612, (S)-4-(1-(4-(2-aminophenylcarbamoyl)phenyl)pyrrolidin-3-yloxy)benzoic acid]",IC50,[5],815 nM
same,IC50,"[2]; HCT-116, HCT116 cells",39000 nM
"Nc1ccccc1NC(=O)c1ccc(N2CC[C@@H](Nc3ccccc3)C2)cc1 [compound 609, (R)-N-(2-aminophenyl)-4-(3-(phenylamino)pyrrolidin-1-yl)benzamide]",IC50,[5],1220 nM
same,IC50,"[2]; HCT-116, HCT116 cells",2000 nM
"Nc1ccccc1NC(=O)c1ccc(Cn2c(=O)[nH]c3ccccc3c2=O)cc1 [Cpd 157, N-(2-Amino-phenyl)-4-(2,4-dioxo-1,4-dihydro-2H-quinazolin-3-ylmethyl)-benzamide]",IC50,[2]; [7],600 nM
same,EC50,[3]; [8],1000 nM
same,inhibition in vivo at 20 mg/kg,[4],66%
"Nc1ccccc1NC(=O)c1ccc(N2CC[C@@H](Oc3cccnc3)C2)cc1 [compound 607, (R)-N-(2-aminophenyl)-4-(3-(pyridin-3-yloxy)pyrrolidin-1-yl)benzamide]",IC50,[5],639 nM
same,IC50,"[2]; HCT-116, HCT116 cells",1000 nM
"Nc1ccccc1NC(=O)c1ccc(CSc2nc3ccccc3[nH]2)cc1 [Cpd 126, N-(2-Amino-phenyl)-4-(1H-benzimidazol-2-ylsulfanylmethyl)-benzamide]",IC50,[2]; [7],200 nM
same,EC50,[3]; [8],1000 nM
same,inhibition in vivo at 40 mg/kg,[4],62%
"Nc1ccccc1NC(=O)c1ccc(N2CC[C@H](Oc3ccc(Oc4ccccc4)cc3)C2)cc1 [compound 615, (S)-N-(2-aminophenyl)-4-(3-(4-phenoxyphenoxy)pyrrolidin-1-yl)benzamide]",IC50,[5],1380 nM
same,IC50,"[2]; HCT-116, HCT116 cells",4000 nM
"Nc1nc(NCc2ccc(C(=O)Nc3ccccc3N)cc2)nc(NC2CCc3ccccc32)n1 (stereo not drawn) [Cpd 10, 4-{[4-amino-6-(1-indanyl-amino)-[1,3,5]-triazin-2-ylamino]-methyl}-N-(2-amino-phenyl)-benzamide]",IC50,[1]; [11],2000 nM
same,IC50,[2]; [12],600 nM
same,EC50,[3]; [13],1000 nM
Nc1ccccc1NC(=O)c1ccc(-c2cccc(CNC3Cc4ccccc4C3)c2)cc1 [Cpd 186],IC50,[1]; [14],2000 nM
same,IC50,[2]; [15],2000 nM
same,EC50,[3]; [16],2000 nM
"Nc1ccccc1NC(=O)c1ccc(Cn2nnc3ccccc3c2=O)cc1 [Cpd 155, N-(2-Amino-phenyl)-4-(4-oxo-4H-benzo[d][1,2,3]triazin-3-ylmethyl)-benzamide]",IC50,[1]; [6],400 nM
same,IC50,[2]; [7],400 nM
same,EC50,[3]; [8],1000 nM
"COc1ccccc1NCc1ccc(C(=O)Nc2ccccc2N)cc1 [Cpd 429, N-(2-Amino-phenyl)-4-[(2-methoxy-phenylamino)-methyl]-benzamide]",IC50,[1]; [14],4000 nM
same,IC50,[2]; [15],900 nM
same,EC50,[3]; [16],1000 nM
"COc1cc(NCc2ccc(C(=O)Nc3ccccc3N)cc2)nc(OC)n1 [Cpd 392, N-(2-Amino-phenyl)-4-[(2,6-dimethoxy-pyrimidin-4-ylamino)-methyl]-benzamide]",IC50,[1]; [14],4000 nM
same,IC50,[2]; [15],1000 nM
same,EC50,[3]; [16],1000 nM
COc1ccc2nc(NCc3ccc(C(=O)Nc4ccccc4N)cc3)sc2c1 [Cpd 233],IC50,[1]; [14],900 nM
same,IC50,[2]; [15],300 nM
same,EC50,[3]; [16],1000 nM
"CSc1cccc(NCc2ccc(C(=O)Nc3ccccc3N)cc2)c1 [Cpd 438, N-(2-Amino-phenyl)-4-[(3-methylsulfanyl-phenylamino)-methyl]-benzamide]",IC50,[1]; [14],5000 nM
same,IC50,[2]; [15],600 nM
same,EC50,[3]; [16],1000 nM
"Nc1ccccc1NC(=O)c1ccc(Cc2coc3ccccc3c2=O)cc1 [compound 262, N-(2-Amino-phenyl)-4-(4-oxo-4H-chromen-3-ylmethyl)-benzamide]",IC50,[1]; [14],500 nM
same,IC50,[2]; [15],300 nM
same,EC50,[3]; [16],1000 nM
COc1cc(OC)nc(NCc2ccc(C(=O)Nc3ccccc3N)cc2)n1 [Cpd 169],IC50,[1]; [6],300 nM
same,IC50,[2]; [7],700 nM
same,EC50,[3]; [8],1000 nM
"Nc1ccccc1NC(=O)c1ccc(CNc2ccc(OC(F)(F)F)cc2)cc1 [Cpd 422, N-(2-Amino-phenyl)-4-[(4-trifluoromethoxy-phenylamino)-methyl]-benzamide]",IC50,[1]; [14],< 50 nM
same,IC50,[2]; [15],900 nM
same,EC50,[3]; [16],5000 nM
"COc1cc(CNc2ccc(C(=O)Nc3ccccc3N)cc2)cc(OC)c1 [Cpd 393, N-(2-Amino-phenyl)-4-(3,5-dimethoxy-benzylamino)-benzamide]",IC50,[1]; [14],4000 nM
same,IC50,[2]; [15],600 nM
same,EC50,[3]; [16],1000 nM
"Nc1ccccc1NC(=O)/C=C/c1ccc(NCc2cccc(OCC(F)(F)F)c2)nc1 [Cpd 525, N-(2-Amino-phenyl)-3-{6-[3-(2,2,2-trifluoro-ethoxy)-benzylamino]-pyridin-3-yl}-acrylamide]",IC50,"[1]; Table 5d, read-out: HDAC-1 IC50",3000 nM
same,IC50,"[2]; HCT-116, Table 5d, HCT116 cells, 72 hours",4000 nM
same,EC50,"[3]; T-24, Table 5d, read-out: H4Ac(T24) EC50",5000 nM
